Reference: PMC9057582, “HIF inhibitor 32-134D eradicates murine hepatocellular carcinoma in combination with anti-PD1 therapy” (The Journal of Clinical Investigation, 2022)

Columns and labels:
[1] = system: Hep3B tumor xenograft; test: Analysis of Hep3B xenograft tumors (immunoblot, RT-qPCR, ELISA, CD31 immunohistochemistry); assay type: in vivo, nude (nu/nu) mice
Source text: Figure 2 Effect of 32-134D on Hep3B tumor xenograft growth and vascularization. (A) Female nude mice received a subcutaneous injection of […] Hep3B cells. When tumors reached a volume of 150 mm^3 (designated treatment day 1), the mice were randomized to receive a daily intraperitoneal injection of 32-134D at a dose of 0 (blue), 20 (black), 40 (red), or 80 (green) mg/kg. Data are presented as mean tumor volume (± SEM; n = 4 each). **P < 0.01, ***P < 0.001 (ANOVA with Bonferroni’s post hoc test). (B) Gross pathology of tumors harvested from vehicle-treated (top panel) and 32-134D–treated (bottom panel) mice. (C) Nuclear extracts prepared from tumors were assayed by immunoblotting using antibodies against the indicated proteins. (D) Total RNA was isolated from tumor tissue and analyzed by RT-qPCR using primers specific for the indicated mRNAs and results (mean ± SEM, n = 4) were normalized to the mean value for tumors from vehicle-treated mice. (E) ELISA for the indicated proteins was performed using aliquots of tumor lysates (mean ± SEM; n = 3–4 tumors each). *P < 0.05 (Mann-Whitney test). (F) Formalin-fixed and paraffin-embedded tumor sections were analyzed by immunohistochemistry using an antibody against CD31 to identify vascular endothelial cells. Scale bar: 100 μm. The total CD31^+ vessel area per field was quantified using ImageJ (mean ± SEM; n = 4 tumors with 5 sections per tumor). *P < 0.05 (Student’s t test).
Intratumoral HIF-1β protein levels were not affected by treatment with 32-134D (Supplemental Figure 5E).
Female nude mice (NCI Athymic NCr-nu/nu) and male C57L mice were purchased from Charles River and The Jackson Laboratory, respectively. Hep3B (8 × 10^6) and Hepa1-6 (1 × 10^7) cells were resuspended in PBS and Matrigel (1:1, vol/vol) and implanted subcutaneously in 6- to 8-week-old mice, and tumor volume was calculated as V = abc × 0.52. For Hep3B tumor studies, once tumors reached 100 to 150 mm^3, mice were randomized into groups to receive daily intraperitoneal injection of either 32-134D or vehicle only (20% PEG-400, 10% Cremophor EL, 10% ethanol in PBS). For Hepa1-6 tumors, mice were randomized to receive treatment once tumors became palpable (tumor eradication experiment) or reached a volume of 200 mm^3 (harvesting of tumors for flow cytometry and analysis of RNA and protein expression). Tumors were harvested 4 hours after the last treatment (see Supplemental Table 6 for reagent sources).
Tumor samples were fixed in 10% formalin in phosphate buffer for 24 hours and placed in PBS the following day for paraffin embedding and sectioning. Anti-CD31 immunohistochemical staining, hematoxylin and eosin counterstaining, and whole-slide scanning were performed by NDB Bio (www.ndbbio.com).
Tumors were homogenized in ice-cold PBS supplemented with 1% Triton X-100 and PIs, centrifuged at 10,000g for 20 minutes to pellet debris, and the supernatant was collected for ELISA using commercial kits (Supplemental Table 6). Optical density was obtained at 450 nm (corrected for readings at 570 nm) using the VICTOR Nivo plate reader. Sample protein concentration was calculated by linear regression from a standard curve.

[2] = system: Hepa1-6 mouse HCC cells; test: RT-qPCR of hypoxia-induced gene expression in Hepa1-6 cells; assay type: cell-based; settings: Hepa1-6, 1% O2, 24 hours
Method: Next, we analyzed Hepa1-6, which is a mouse HCC cell line. […] CXCL1, IL-6, and IL-10 were not induced by hypoxia, whereas hypoxia-induced IL-22 expression was inhibited by 32-134D (P < 0.05; Figure 3C).
Figure 3 Effect of 32-134D treatment on hypoxia-induced gene expression in Hepa1-6 cells. (A–C) Cells were exposed to 20% O2 and vehicle (white bars), 1% O2 and vehicle (blue bars), or 1% O2 and 32-134D (red bars) for 24 hours and mRNAs were quantified by RT-qPCR and normalized to white (mean ± SEM, n = 4). *P < 0.05 versus white; ^#P < 0.05 versus blue (ANOVA with Bonferroni’s post hoc test).
RNA was extracted using TRIzol Reagent. Quantitative real-time PCR was conducted using SYBR Green PCR Master Mix and reactions were run using a Bio-Rad thermal cycler. Primer sequences and reagent sources are listed in Supplemental Table 5. The mRNA expression of target genes was normalized to the expression of 18S rRNA and the fold change (FC) was calculated based on the threshold cycle (Ct) as FC = 2^–Δ(ΔCt), where ΔCt = Cttarget gene – Ct18S rRNA and Δ(ΔCt) = ΔCttreatment – ΔCtcontrol. For RNA-seq, total RNA was isolated and treated with DNase (Qiagen). The JHU GRCF High-Throughput Sequencing facility prepared libraries and performed RNA-seq. The RNA-seq data were processed and interpreted using Genialis Expressions software (https://www.genialis.com/expressions/). An automated data analysis pipeline run in the Genialis platform consisted of the following: Sequence quality checks were performed on raw and trimmed reads with FastQC. Bbduk was used to trim adapters and filter out poor quality reads. Trimmed reads were then mapped to the STAR index (ENSEMBL 100) reference genome using the STAR ([93]) aligner. Gene expression levels were quantified with featureCounts ([94]), and differential gene expression analyses were performed with DESeq2 ([95]). […] Differential expression was determined with an FDR of less than 0.05 and mRNA FC of greater than 1.5 to identify hypoxia-induced genes and genes inhibited by 32-134D. Data used in this study have been deposited in the NCBI Gene Expression Omnibus database (GEO GSE195997).
Supplemental Figure 7. Effect of 32-134D on gene expression in Hepa1-6 cells. Cells were exposed to 20% O2 and vehicle (white bar) or 1% O2 and vehicle (blue bar), 2.5-10 […]
for 24 hours and mRNAs were quantified by RT-qPCR and normalized to white (mean + SEM, n = 4). *p < 0.05 vs white; #p < 0.05 vs blue (ANOVA with Bonferroni post-test).
(1 picture or pasted object on this page, not shown here)

Brc1ccc2c(-c3csc(-c4c[nH]c5c(Br)cccc45)n3)c[nH]c2c1 [Compound 32-134D]
VEGFA, EPO, SDF-1α and SCF protein in tumor lysates ([1]; ELISA, P < 0.05): significantly decreased expression | tumor mRNA expression of ANGPTL4, EPO, PGF, CD73, PDL1, VEGFA, SDF-1, SCF ([1]; RT-qPCR, P < 0.05): significant decrease | intratumoral HIF-1β protein levels ([1]; immunoblot): not affected | intratumoral HIF-1α and HIF-2α protein expression ([1]; immunoblot of tumor lysates): almost complete loss | CD31+ blood vessel area in tumors ([1]; immunohistochemistry, P < 0.05): significantly decreased blood vessel area | RPL13A mRNA expression [2]: no effect | hypoxic induction of PDL1 mRNA [2]: induced in vehicle-treated but not in 32-134D–treated cells | hypoxia-induced ANGPTL4, EPO, PGF, and VEGFA mRNA expression ([2]; 2.5-10 µM): significant dose-dependent inhibition | hypoxia-induced IL-22 expression ([2]; P < 0.05): inhibited | hypoxia-induced expression of SLC2A1, LDHA, ENTPD1, and CA9 mRNA ([2]; P < 0.05): inhibited | hypoxic induction of B7H4 and TIM3 mRNA ([2]; P < 0.05): hypoxia-induced expression in vehicle-treated but not in 32-134D–treated cells
